Measured values: ChEMBL document CHEMBL5500423, “More than an Amide Bioisostere: Discovery of 1,2,4-Triazole-containing Pyrazolo[1,5-a]pyrimidine Host CSNK2 Inhibitors for Combatting β-Coronavirus Replication” (J Med Chem, 2024)
Active and inactive are the calls of the source. The rule behind the calls is not given here.

Key:
[1] = Apparent permeability from apical to basolateral side in MDCK-MDR1 cells at 1 uM incubated for 2 hrs by fluorescence plate reader analysis; type: ADME, cell-based, Canis lupus familiaris; details: dog, mdck-mdr1, 2 h
[2] = target: Death-associated protein kinase 2 (Homo sapiens, UniProt Q9UIK4); assay: Inhibition of human DAPK2 expressed in HEK293 cells incubated for 2 hrs by NanoBRET assay; type: cell-based
Sequence of Death-associated protein kinase 2 (Q9UIK4 whole entry): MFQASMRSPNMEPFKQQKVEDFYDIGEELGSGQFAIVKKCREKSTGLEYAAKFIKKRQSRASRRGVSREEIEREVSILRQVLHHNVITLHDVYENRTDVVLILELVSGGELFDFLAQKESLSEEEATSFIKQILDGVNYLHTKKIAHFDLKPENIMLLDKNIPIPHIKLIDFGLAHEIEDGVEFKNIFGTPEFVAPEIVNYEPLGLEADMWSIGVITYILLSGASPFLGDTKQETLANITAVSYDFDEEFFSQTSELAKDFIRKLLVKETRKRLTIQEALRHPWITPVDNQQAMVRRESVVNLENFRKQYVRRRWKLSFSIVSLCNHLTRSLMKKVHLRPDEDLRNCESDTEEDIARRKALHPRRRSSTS

[3] = target: T1, Homeodomain-interacting protein kinase 4 (Homo sapiens, UniProt Q8NE63); assay: Inhibition of human HIPK4 expressed in HEK293 cells incubated for 2 hrs by NanoBRET assay; type: cell-based
T1 sequence (Q8NE63 whole entry): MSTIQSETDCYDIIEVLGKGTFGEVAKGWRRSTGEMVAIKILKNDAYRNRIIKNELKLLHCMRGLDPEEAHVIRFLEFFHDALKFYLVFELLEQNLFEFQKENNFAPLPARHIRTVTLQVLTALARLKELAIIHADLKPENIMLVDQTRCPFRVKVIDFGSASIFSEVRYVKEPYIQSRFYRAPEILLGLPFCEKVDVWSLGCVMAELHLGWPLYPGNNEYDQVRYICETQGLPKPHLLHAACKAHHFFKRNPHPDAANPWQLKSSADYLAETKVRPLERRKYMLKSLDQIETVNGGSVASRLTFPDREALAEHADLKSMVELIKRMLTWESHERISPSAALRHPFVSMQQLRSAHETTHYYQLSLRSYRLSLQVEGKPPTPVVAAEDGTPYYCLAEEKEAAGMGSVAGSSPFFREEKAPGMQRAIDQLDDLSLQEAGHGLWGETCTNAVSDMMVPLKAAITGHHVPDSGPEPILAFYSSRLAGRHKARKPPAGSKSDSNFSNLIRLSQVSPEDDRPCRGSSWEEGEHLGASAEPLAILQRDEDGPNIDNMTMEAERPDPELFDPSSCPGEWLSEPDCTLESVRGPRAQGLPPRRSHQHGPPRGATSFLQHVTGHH

[4] = target: T2, Casein kinase II subunit alpha' (Homo sapiens, UniProt P19784); assay: Inhibition of NLuc-fused CSNK2A2 (unknown origin) expressed in digitonin-permeabilized HEK293 cells incubated for 25 mins by NanoBRET assay; type: cell-based
[5] = target: T2, Casein kinase II subunit alpha'; assay: Inhibition of NLuc-fused CSNK2A2 (unknown origin) expressed in HEK293 cells incubated for 2 hrs by NanoBRET assay; type: cell-based
Target sequence in this assay (P19784 whole entry, the tested form may be a part): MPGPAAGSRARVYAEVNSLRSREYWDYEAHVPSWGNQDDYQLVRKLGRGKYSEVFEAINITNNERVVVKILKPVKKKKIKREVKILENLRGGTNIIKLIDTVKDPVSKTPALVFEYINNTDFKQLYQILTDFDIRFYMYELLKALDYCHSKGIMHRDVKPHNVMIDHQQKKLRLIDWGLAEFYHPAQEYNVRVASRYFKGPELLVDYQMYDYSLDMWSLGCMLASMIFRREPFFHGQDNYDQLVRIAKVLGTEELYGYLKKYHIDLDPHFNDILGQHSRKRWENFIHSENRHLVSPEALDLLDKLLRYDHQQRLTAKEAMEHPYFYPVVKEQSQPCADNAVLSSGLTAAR

[6] = target: Dual specificity protein kinase CLK4 (Homo sapiens, UniProt Q9HAZ1); assay: Inhibition of human CLK4 expressed in HEK293 cells incubated for 2 hrs by NanoBRET assay; type: cell-based
Sequence of Dual specificity protein kinase CLK4 (Q9HAZ1 whole entry): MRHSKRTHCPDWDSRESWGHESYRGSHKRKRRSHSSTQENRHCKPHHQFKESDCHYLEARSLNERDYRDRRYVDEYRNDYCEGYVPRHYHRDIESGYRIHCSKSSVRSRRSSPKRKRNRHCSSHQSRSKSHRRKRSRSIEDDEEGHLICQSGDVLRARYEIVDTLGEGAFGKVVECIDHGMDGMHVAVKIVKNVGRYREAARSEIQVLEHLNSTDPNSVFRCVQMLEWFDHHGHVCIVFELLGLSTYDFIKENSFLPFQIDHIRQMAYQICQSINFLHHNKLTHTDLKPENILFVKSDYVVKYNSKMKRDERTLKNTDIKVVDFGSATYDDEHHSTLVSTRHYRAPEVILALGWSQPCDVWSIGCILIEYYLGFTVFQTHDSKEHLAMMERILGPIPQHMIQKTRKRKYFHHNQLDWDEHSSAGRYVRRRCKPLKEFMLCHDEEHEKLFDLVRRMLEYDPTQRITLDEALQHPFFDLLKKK

[7] = Intrinsic clearance in male CD-1 mouse at 3 mg/kg, iv measured after 5 hrs by LC-MS/MS analysis; type: ADME, organism-based; details: in vivo
[8] = target: T2, Casein kinase II subunit alpha'; assay: Inhibition of CSNK2A2 (unknown origin) in presence of ATP by Eurofins radiometric enzymatic assay
Target sequence in this assay (P19784 whole entry, the tested form may be a part): as the sequence (P19784 whole entry, the tested form may be a part) above

[9] = target: Casein kinase 2 (Homo sapiens) (UniProt P67870+P68400+P19784+Q8NEV1); assay: Inhibition of CSNK2 downstream signaling in human A549-ACE2 cells assessed as reduction in EIF2S2 phosphorylation at 1 to 5 uM measured after 24 hrs by Western blot analysis; type: cell-based; details: dose 1-5 µM
[10] = target: Dual specificity protein kinase CLK2 (Homo sapiens, UniProt P49760); assay: Inhibition of human CLK2 expressed in HEK293 cells incubated for 2 hrs by NanoBRET assay; type: cell-based
Sequence of Dual specificity protein kinase CLK2 (P49760 whole entry): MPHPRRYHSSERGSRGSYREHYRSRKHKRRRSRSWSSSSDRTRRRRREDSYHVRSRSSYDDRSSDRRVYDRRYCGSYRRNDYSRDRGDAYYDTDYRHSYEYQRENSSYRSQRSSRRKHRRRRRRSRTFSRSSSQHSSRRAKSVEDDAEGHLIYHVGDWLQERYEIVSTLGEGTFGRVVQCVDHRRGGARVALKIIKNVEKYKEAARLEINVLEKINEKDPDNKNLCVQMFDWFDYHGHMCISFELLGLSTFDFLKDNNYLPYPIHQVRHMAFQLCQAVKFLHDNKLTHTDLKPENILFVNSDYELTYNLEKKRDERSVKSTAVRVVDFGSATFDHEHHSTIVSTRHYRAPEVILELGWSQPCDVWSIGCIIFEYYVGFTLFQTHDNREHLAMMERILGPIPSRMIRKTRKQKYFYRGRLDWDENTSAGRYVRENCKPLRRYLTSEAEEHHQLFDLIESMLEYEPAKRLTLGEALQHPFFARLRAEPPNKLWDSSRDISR

[11] = Apparent permeability from basolateral to apical side in MDCK-MDR1 cells at 1 uM incubated for 2 hrs by fluorescence plate reader analysis; type: ADME, cell-based, Canis lupus familiaris; details: dog, mdck-mdr1, 2 h
[12] = target: Dual specificity protein kinase CLK1 (Homo sapiens, UniProt P49759); assay: Inhibition of human CLK1 expressed in HEK293 cells incubated for 2 hrs by NanoBRET assay; type: cell-based
Sequence of Dual specificity protein kinase CLK1 (P49759 whole entry): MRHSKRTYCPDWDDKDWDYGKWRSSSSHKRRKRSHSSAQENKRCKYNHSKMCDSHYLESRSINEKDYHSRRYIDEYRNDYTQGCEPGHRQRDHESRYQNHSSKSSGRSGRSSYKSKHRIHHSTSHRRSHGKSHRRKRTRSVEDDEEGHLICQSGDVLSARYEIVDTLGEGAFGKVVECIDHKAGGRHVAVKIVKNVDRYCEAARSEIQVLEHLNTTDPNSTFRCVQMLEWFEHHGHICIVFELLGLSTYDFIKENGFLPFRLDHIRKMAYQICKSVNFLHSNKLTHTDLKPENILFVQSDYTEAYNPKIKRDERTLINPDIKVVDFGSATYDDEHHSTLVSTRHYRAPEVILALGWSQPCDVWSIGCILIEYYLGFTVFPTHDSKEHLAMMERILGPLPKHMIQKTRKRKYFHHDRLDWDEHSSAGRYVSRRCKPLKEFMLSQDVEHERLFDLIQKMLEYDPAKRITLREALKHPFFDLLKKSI

[13] = target: Casein kinase II subunit alpha (Homo sapiens, UniProt P68400); assay: Inhibition of CSNK2A1 (unknown origin) in presence of ATP by Eurofins radiometric enzymatic assay
Sequence of Casein kinase II subunit alpha (P68400 whole entry): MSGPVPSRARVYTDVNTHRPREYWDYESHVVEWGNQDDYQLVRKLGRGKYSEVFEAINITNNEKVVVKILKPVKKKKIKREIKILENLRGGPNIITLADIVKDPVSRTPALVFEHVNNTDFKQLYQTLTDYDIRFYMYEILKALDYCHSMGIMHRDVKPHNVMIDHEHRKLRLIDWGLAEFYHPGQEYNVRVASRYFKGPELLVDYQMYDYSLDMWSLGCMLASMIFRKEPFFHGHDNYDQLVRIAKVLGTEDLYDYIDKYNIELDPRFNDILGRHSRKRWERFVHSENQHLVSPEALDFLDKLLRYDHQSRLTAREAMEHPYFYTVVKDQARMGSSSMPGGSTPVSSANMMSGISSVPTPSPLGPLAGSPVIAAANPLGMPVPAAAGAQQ

[14] = target: Dual specificity tyrosine-phosphorylation-regulated kinase 1A (Homo sapiens) (UniProt Q13627); assay: Binding affinity to human DYRK1A expressed in HEK293 cells assessed as target occupancy upto 3 uM incubated for 2 hrs by NanoBRET assay; type: cell-based
[15] = target: T2, Casein kinase II subunit alpha'; assay: Inhibition of human CSNK2A2 expressed in HEK293 cells incubated for 2 hrs by NanoBRET assay; type: cell-based
Target sequence in this assay (P19784 whole entry, the tested form may be a part): as the sequence (P19784 whole entry, the tested form may be a part) above

[16] = target: Phosphorylase b kinase gamma catalytic chain, skeletal muscle/heart isoform (Homo sapiens, UniProt Q16816); assay: Inhibition of human PHKG1 expressed in HEK293 cells incubated for 2 hrs by NanoBRET assay; type: cell-based
Sequence of Phosphorylase b kinase gamma catalytic chain, skeletal muscle/heart isoform (Q16816 whole entry, canonical isoform): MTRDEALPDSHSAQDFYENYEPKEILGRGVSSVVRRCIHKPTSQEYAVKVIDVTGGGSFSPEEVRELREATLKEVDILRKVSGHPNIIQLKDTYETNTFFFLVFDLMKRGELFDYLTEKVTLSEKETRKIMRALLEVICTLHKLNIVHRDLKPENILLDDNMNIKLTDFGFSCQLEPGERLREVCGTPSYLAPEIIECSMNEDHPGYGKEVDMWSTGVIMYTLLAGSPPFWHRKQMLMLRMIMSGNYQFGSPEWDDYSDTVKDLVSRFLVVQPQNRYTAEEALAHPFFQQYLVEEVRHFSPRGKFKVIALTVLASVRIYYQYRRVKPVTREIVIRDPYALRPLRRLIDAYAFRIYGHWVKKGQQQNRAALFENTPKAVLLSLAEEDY

Murine hepatitis virus = assay: Antiviral activity against Murine hepatitis virus infected in mouse DBT cells preincubated with cells for 1 hrs followed by viral infection and measured after 10 hrs by luminometer; type: functional, organism-based; details: Murine coronavirus
[17] = target: Cyclin-dependent kinase 7 (Homo sapiens, UniProt P50613); assay: Inhibition of human CDK7 expressed in HEK293 cells incubated for 2 hrs by NanoBRET assay; type: cell-based
Sequence of Cyclin-dependent kinase 7 (P50613 whole entry): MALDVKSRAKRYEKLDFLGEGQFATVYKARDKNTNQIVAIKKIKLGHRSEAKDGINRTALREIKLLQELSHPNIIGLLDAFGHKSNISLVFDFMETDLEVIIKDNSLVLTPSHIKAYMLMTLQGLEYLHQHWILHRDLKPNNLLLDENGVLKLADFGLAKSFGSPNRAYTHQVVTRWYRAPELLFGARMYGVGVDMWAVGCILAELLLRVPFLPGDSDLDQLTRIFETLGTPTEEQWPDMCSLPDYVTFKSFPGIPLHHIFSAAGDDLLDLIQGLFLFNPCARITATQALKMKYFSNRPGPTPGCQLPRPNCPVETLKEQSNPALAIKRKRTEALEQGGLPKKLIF

[18] = Cytotoxicity against human A549-ACE2 cells assessed as reduction in cell viability at >10 uM pretreated for 1 hrs followed by mock infection for 2 hrs and replacement with fresh medium containing compound and measured 48 hrs post mock-infection by LDH assay; type: toxicity, cell-based; details: a549-ace2, 49 h
[19] = Kinetic solubility of compound in PBS at pH 7.4 incubated for 24 hrs by HPLC analysis; type: physicochemical; details: buffer, pH 7.4, 24 h
[20] = Cytotoxicity against human A549-ACE2 cells assessed as cell viability at 1 uM incubated for 48 hrs by CellTiter-Glo2 assay relative to control; type: toxicity, cell-based; details: a549-ace2, 48 h
[21] = Cytotoxicity against human A549-ACE2 cells assessed as cell viability at 0.1 uM incubated for 48 hrs by CellTiter-Glo2 assay relative to control; type: toxicity, cell-based; details: a549-ace2, 48 h

Q: Which results are given for `CCN(CCN)c1ccc(Nc2cc(NC3CC3)n3ncc(C#N)c3n2)cc1-n1cnnc1`?
A: Papp [1]: 0.16 10^-6 cm/s; IC50 [2]: 2510 nM; IC50 [3]: 25.1 µM; IC50 [4]: 80 nM; inhibition [4]: Dose-Dependent Effect; IC50 [5]: 316 nM; IC50 [6]: 2510 nM; CL [7]: 86 mL/min/kg; IC50 [8]: 0.66 nM; inhibition [9]: Active; IC50 [10]: 3.16 µM; Papp [11]: 0.36 10^-6 cm/s; IC50 [12]: 5.01 µM; IC50 [13]: 1.7 nM; Activity [14]: inactive; IC50 [15]: 316 nM; IC50 [16]: 6.31 µM; IC50 (Murine hepatitis virus): 200 nM; IC50 [17]: 15.8 µM; Activity [18]: Non-Toxic

Q: Which results are given for `CN(CCN)c1ccc(Nc2cc(NC3CC3)n3ncc(C#N)c3n2)cc1-n1cnnc1`?
A: IC50 [5]: 251 nM; Kinetic_solubility [19]: 45 µg/mL; Activity [20]: 87%; Activity [21]: 99%; IC50 (Murine hepatitis virus): 398 nM

Q: Which IC50 [5] does the source give for `N#Cc1cnn2c(NC3CC3)cc(Nc3cccc(-n4cnnc4)c3)nc12` here?
A: Its IC50 is 3.98 nM.

Q: What about the Kinetic_solubility [19] of the same compound?
A: Its Kinetic_solubility is 0.47 µg/mL.

Q: What about the Activity [20] of the same compound?
A: Its Activity is 85%.

Q: And the Activity [21]?
A: The Activity was 100%.

Q: And the IC50 (Murine hepatitis virus)?
A: The IC50 was 39.8 nM.

Q: For `COCCNc1ccc(Nc2cc(NC3CC3)n3ncc(C#N)c3n2)cc1-n1cnnc1`, which IC50 [5] is on record?
A: The IC50 was 126 nM.

Q: And the Kinetic_solubility [19]?
A: The Kinetic_solubility was 0.8 µg/mL.

Q: What about the Activity [20] of the same compound?
A: Its Activity is 99%.

Q: And the Activity [21]?
A: Its Activity is 99%.

Q: What about the IC50 (Murine hepatitis virus) of the same compound?
A: Its IC50 is 316 nM.

Q: With `N#Cc1cnn2c(NC3CC3)cc(Nc3ccnc(-n4cnnc4)c3)nc12` as the compound, how does the IC50 [5] read?
A: Its IC50 is 10 nM.

Q: And the Kinetic_solubility [19]?
A: Its Kinetic_solubility is 0.27 µg/mL.

Q: And the Activity [20]?
A: The Activity was 98%.

Q: What about the Activity [21] of the same compound?
A: Its Activity is 99%.

Q: What about the IC50 (Murine hepatitis virus) of the same compound?
A: The IC50 was 63.1 nM.

Q: With `CN(CCO)c1ccc(Nc2cc(NC3CC3)n3ncc(C#N)c3n2)cc1-n1cnnc1` as the compound, how does the IC50 [5] read?
A: Its IC50 is 126 nM.

Q: And the Kinetic_solubility [19]?
A: The Kinetic_solubility was 38 µg/mL.

Q: And the Activity [20]?
A: The Activity was 97%.

Q: What about the Activity [21] of the same compound?
A: The Activity was 95%.

Q: And the IC50 (Murine hepatitis virus)?
A: Its IC50 is 200 nM.
